The values below come from patent US11096929B2 (Ovid Therapeutics Inc., priority 2015, dated 2021).

For series [1], the system named is healthy elderly male and female subjects. As to conditions: in vivo.
In series [2] the test system is healthy adults subjected to a 5-hour sleep restriction. Kind of series: Daytime performance after sleep restriction (MSLT, SWS, KSS, neurobehavioral battery). It counts as in vivo, human. How it is done:
The study included a 2-night single-blind placebo run-in period, a 4-night double-blind treatment period during which sleep was restricted to 5 hours and a 2-night single-blind placebo run-out period. The study included healthy male and female volunteers 18 to <55 years of age.
2-night run-in period: All patients received placebo ?
2-night run-out period: All patients received placebo
The primary endpoints included observations based on the Multiple Sleep Latency Test (MSLT) and Slow Wave Sleep (SWS) assessment.

Series [3] is described as follows: Plasma concentration profiles, dose proportionality and absolute bioavailability of gaboxadol after single oral doses and 10 mg IV. The following applies: geometric mean, N = 10.
Series [4] deals with healthy, male and female subjects. Put plainly: Driving performance (real driving on the road) after evening and middle of the night dosing. In kind it is in vivo, human. The following applies: for effect on memory test, body sway, DSST or critical tracking: cognitive and psychomotor test battery; for effect on memory test, body sway, DSST or critical tracking / effect on driving: gaboxadol 15 mg; for tolerability / most frequent adverse events: 15 mg; for effect on driving: driving test at 9 am. The source says: The study participants included healthy, male and female subjects between 21 and 45 years of age, with a valid drivers license for at least 3 years.
Following a cognitive and psychomotor test battery, the driving test started at 9 am and lasted for one hour.

The subject of series [5] is subjects with Angelman syndrome. Kind of series: Adverse events in 12-week placebo-controlled Angelman syndrome trial. It counts as in vivo, human.
The next series deals with Ube3a-deficient mice. The following applies: low doses; Ube3a-deficient mice in vivo; cited from earlier work.
A further series has as its system insomnia. The following applies: three-month efficacy study; cited from earlier work.
Series [6] deals with subjects with Angelman syndrome. Put plainly: Sleep diary in 12-week placebo-controlled Angelman syndrome trial. In kind it is in vivo, human. As to conditions: for 6-week LS Mean sleep time (total sleep time at night) / 12-week LS Mean sleep time (total sleep time at night): sleep diary. The procedure:
This multicenter, randomized, parallel (3-arm), double-blind, placebo-controlled trial enrolled 88 patients including adults (n=66) and adolescents (n=22) aged 13 to 49 years of age, diagnosed with Angelman syndrome. […] The dosing schedules that were assessed against placebo were once daily (QD): An evening dose titrated to the target dose of 15 mg unless not tolerated; and twice daily (BID): Evening and morning doses titrated to the target doses of 15 mg evening dose and 10 mg morning dose unless not tolerated.
The observed and change from baseline in total hours of sleep time at night (assessed from subject Sleep Diary) is provided in Table III.

For series [7] the test system is unchanged. Put plainly: Clinical Global Impressions (CGI-S, CGI-I) in 12-week placebo-controlled Angelman syndrome trial. It counts as in vivo, human. The following applies: for percentage very much improved on CGI-I: QD group; for responders (one point or greater improvement in the CGI-I scale): once daily dose. The source says: CGI-S scale assessed all sub-domains of Angelman syndrome (gross and fine motor ability, sleep, and adaptive behavior) plus globally by the investigator. […] The Clinical Global Impressions-Improvement (CGI-I) scale was used to assess all sub-domains of Angelman syndrome (gross and fine motor ability, sleep, and adaptive behavior) plus globally by the investigator and caregiver. CGI-I is a 7-point scale in which the investigator rates the improvement or worsening of symptoms compared to baseline.

Series [8] deals with patients with a history of drug abuse. As to conditions: cited from earlier work.
The test system of series [9] is Purkinje cells in cerebellar brain slices. As to conditions: low doses; cited from earlier work.
[10] abbreviates: middle-of-the-night (4 am) administration, zolpidem 10 mg.
The mark [11] stands for this setting: BID dosing (10 mg morning, 15 mg evening), N = 29.

Each structure is given as a SMILES string. “Also recorded” adds a separate entry of the source.

Regarding `CCN(CC)CCN1C(=O)CN=C(c2ccccc2F)c2cc(Cl)ccc21` [Flurazepam], the “residual effect on primary endpoints Choice Reaction Time and Critical Flicker Fusion” value in series [1] is “showed significant effect”.
With `Oc1noc2c1CCNC2` [gaboxadol, 4,5,6,7-tetrahydroisoxazolo [5,4-c]pyridine-3-ol], the “biophysiological measures of stress (heart rate variability, cortisol levels, catecholamine levels, body temperature) vs placebo” value in series [2] (15 mg vs placebo) is reported as “no differences”. Besides, in series [2] (15 mg vs placebo), the “daytime performance, effect sizes for the neurocognitive battery” value is “no strong evidence that gaboxadol improves daytime performance”. Further, the “subjective daytime sleepiness vs placebo” value in series [2] (15 mg, Sleep Restriction period) is reported as “trend towards less subjective daytime sleepiness”. In series [2] (15 mg, Sleep Restriction period, p<0.001, 1 sided), the “amount of slow wave sleep (SWS) vs placebo” value is “increases the amount of slow wave sleep; also recorded: significantly more SWS”. For the same molecule, in series [2] (15 mg, Sleep Restriction period, p=0.047, 1 sided), the “daytime sleepiness (sleep propensity by MSLT) vs placebo” value was “protective effect on reducing daytime sleepiness; also recorded: significantly less daytime sleepiness”. Also, in series [2] (15 mg, last two Sleep Restriction days), the “MSLT longer than placebo, average” value amounted to 2.01 min. For the same molecule, the “Karolinska Sleepiness Score (KSS) less than placebo, average” value in [2] (15 mg, last two Sleep Restriction days, p=0.058, 1 sided, LDA model) was found to be 0.68. For the same molecule, the “SWS longer than placebo, average” value in [2] (15 mg, last two Sleep Restriction nights) worked out at 20.53 min. Also, the Fe was 43% in series [3] (2.5 mg single oral dose); 45% in series [3] (5 mg single oral dose); 53% in series [3] (10 mg I.V.); 53% in series [3] (10 mg Oral); 50% in [3] (15 mg single oral dose); 53% in series [3] (20 mg single oral dose). Also, the “effect on memory test, body sway, DSST or critical tracking” value in series [4] (zopiclone 7.5 mg) is on record as “no effect”. Moreover, the tolerability entry in [4] (evening dose) and in series [4] (middle-of-the-night dose) was “well tolerated” throughout. Further, the “most frequent adverse events” value was “headache and somnolence” in [4] (evening treatment); “dizziness, nausea and somnolence” in series [4] (middle-of-the-night treatment). Further, in series [4] (gaboxadol 15 mg evening dose vs 0.05% blood alcohol concentration), the “effect on driving compared with alcohol” value was “less than the effect observed at a 0.05% blood alcohol concentration”. In addition, in series [4] (setting [10]), the effect on driving entry is recorded as “clinically relevant impairing effect”. The “subjects with Abdominal Pain upper, number (%)” value was 0 in series [5] (BID dosing, N = 29); 0 in series [5] (Combined, N = 58); 0 in series [5] (QD dosing, N = 29). The “subjects with At least 1 Adverse Event, number (%)” value in series [5] (BID dosing, N = 29) is 19 (66%); in series [5] (Combined, N = 58), 37 (64%); in series [5] (QD dosing, N = 29), 18 (62%). The “subjects with Diarrhea, number (%)” value in series [5] (BID dosing, N = 29) was 1 (3.4%); in series [5] (Combined, N = 58), 1 (1.7%); in series [5] (QD dosing, N = 29) it was 0. Further, the “subjects with Gastrointestinal disorders, number (%)” value was 4 (13.8%) in series [5] (BID dosing, N = 29); 4 (6.9%) in series [5] (Combined, N = 58); 0 in series [5] (QD dosing, N = 29, placebo 6 of 29). Also, the “subjects with Nausea, number (%)” value in series [5] (BID dosing, N = 29) is recorded as 2 (6.9%); in series [5] (Combined, N = 58), 2 (3.4%); in series [5] (QD dosing, N = 29), 0. Moreover, the “subjects with Retching, number (%)” value in series [5] (BID dosing, N = 29) is recorded as 1 (3.4%); in series [5] (Combined, N = 58) it was 1 (1.7%); in series [5] (QD dosing, N = 29) it was 0. In addition, the “subjects with Vomiting, number (%)” value in series [5] (BID dosing, N = 29) is on record as 1 (3.4%); in series [5] (Combined, N = 58), 1 (1.7%); in series [5] (QD dosing, N = 29) it was 0. Moreover, the cerebellar ataxia entry with Ube3a-deficient mice is “reduces cerebellar ataxia”. Besides, in series [1], the “residual effect on primary endpoints Choice Reaction Time and Critical Flicker Fusion” value is listed as “did not show residual effect”. Further, the “residual effects on other measurements (MSLT, DSST, Tracking, Memory tests, Body Sway, Leeds Sleep Evaluation Questionnaire)” value in series [1] was “did not show any signs of residual effects”. Moreover, the “effects in sleep onset and sleep maintenance” value in the series on insomnia is “failed to show significant effects”. Moreover, the results for the “6-week LS Mean difference, sleep time” value in [6] (BID dosing), in series [6] (Combined) and in series [6] (QD dosing) were 0.30 (1.1) hours, 0.22 (0.94) hours and 0.14 (0.81) hours, respectively. The “12-week LS Mean difference, sleep time” value in [6] (BID dosing) was 0.18 (0.97) hours; in series [6] (Combined) it was 0.07 (1.0) hours; in series [6] (QD dosing), −0.04 (1.1) hours. For the same molecule, the “6-week LS Mean sleep time (total sleep time at night)” value is reported as 8.95 (1.1) hours in series [6] (BID dosing, N = 29); 8.93 (1.3) hours in [6] (Combined, N = 58); 8.91 (1.5) hours in series [6] (QD dosing, N = 29). For the same molecule, the “12-week LS Mean sleep time (total sleep time at night)” value in series [6] (BID dosing, N = 29) is 8.84 (1.1) hours; in [6] (Combined, N = 58), 8.80 (1.1) hours; in series [6] (QD dosing, N = 29), 8.76 (1.2) hours. Moreover, the “CGI-I 6-week LS Mean” value in series [7] (setting [11]) is given as 3.54 (0.16); in [7] (Combined QD and BID, N = 58) it was 3.45 (0.12); in [7] (QD dosing (15 mg evening), N = 29, 7-point scale, clinician assessed), 3.54 (0.16). Also, the “CGI-I 12-week LS Mean” value is on record as 3.58 (0.16) in series [7] (setting [11]); 3.29 (0.12) in series [7] (Combined QD and BID, N = 58). Also, the results for the “CGI-I 6-week LS Mean difference” value in series [7] (BID dosing minus placebo), in series [7] (Combined minus placebo) and in series [7] (QD dosing minus placebo) were −0.06 (0.21), −0.15 (0.18) and −0.24 (0.21), respectively. For the same molecule, the entries for the “CGI-I 12-week LS Mean difference” value in series [7] (BID dosing minus placebo), in [7] (Combined minus placebo) and in series [7] (QD dosing minus placebo) were −0.21 (0.22), −0.49 (0.19) and −0.78 (0.22), respectively. Moreover, the “percentage very much improved on CGI-I” value in [7] (18-24 year old, placebo 9%) turned out to be 27%; in [7] (oldest cohort (25-49), placebo 11%) it was 20%; in series [7] (youngest cohort (13-17), placebo 0%) it was 33%. Further, the “CGI-S Hyperactivity, change” value in [7] (QD, placebo 3.1 to 3.0) is on record as 3.5 to 2.9. Besides, in series [7] (QD, placebo 3.3 to 3.6), the “CGI-S Stereotypic behavior, change” value is 3.7 to 3.1. Also, the “responders (one point or greater improvement in the CGI-I scale) in overall symptoms” value in series [7] (once daily dose cohort, all ages, placebo 26%) was found to be 70%. The “responders (one point or greater improvement in the CGI-I scale)” value came out at 83% in series [7] (13-17 year old, placebo 29%); 73% in [7] (18-24 year old, placebo 27%); 60% in series [7] (25-49 year old, placebo 22%). For the same molecule, in series [8], the psychiatric adverse events entry is listed as “steep increase in psychiatric adverse events”. Besides, the “abnormal firing properties of a population of Purkinje cells” value in series [9] is listed as “improve the abnormal firing properties”.
`Cc1ccc(-c2nc3ccc(C)cn3c2CC(=O)N(C)C)cc1` [zolpidem]: the effect on driving result in [4] (setting [10]) is given as “numerically greater effect”.
As to `CN1CCN(C(=O)OC2c3nccnc3C(=O)N2c2ccc(Cl)cn2)CC1` (stereo not drawn) [zopiclone], in series [4] (zopiclone 7.5 mg), the “effect on memory test, body sway, DSST or critical tracking” value is “had effect on several of these tests”. Further, the effect on driving result in series [4] (evening dose, zopiclone 7.5 mg) was “numerically greater effect”.
